Assay results reported in patent US20240083861A1, “HSD17B13 INHIBITORS AND USES THEREOF” (FL2022-001, Inc., priority 2020, published 2024).

Biological target: T1, Recombinant human HSD17B13 enzyme (Homo sapiens, UniProt Q7Z5P4)
T1 sequence (Q7Z5P4 20-300): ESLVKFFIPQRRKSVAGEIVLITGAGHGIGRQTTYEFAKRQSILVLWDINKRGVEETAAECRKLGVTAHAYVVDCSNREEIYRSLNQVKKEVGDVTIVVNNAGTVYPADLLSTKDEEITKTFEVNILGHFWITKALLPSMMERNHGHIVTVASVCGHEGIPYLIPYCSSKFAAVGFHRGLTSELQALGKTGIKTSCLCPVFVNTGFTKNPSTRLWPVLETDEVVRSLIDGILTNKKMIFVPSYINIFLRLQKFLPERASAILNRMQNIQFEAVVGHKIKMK
Experiment: HSD17b13 NAD(P)H-Glo biochemical assay
Conditions: 50 uM estradiol, 1 mM NAD+, NAD(P)H-Glo luminescence; read-out: HSD17β13 IC50
Outline: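 Recombinant human HSD17B13 in 20 mM Tris pH7.4 with 0.002% Tween-20 and 0.02% BSA was preincubated with inhibitor for 20 minutes at RT. The reaction ran 3 hours at 37° C with 50 uM estradiol and 1 mM NAD+ (final). NADH formed was detected by NAD(P)H-Glo luminescence after 1 hour at RT.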

| IC50 [nM] | SMILES |
| --- | --- |
| < 100 | Cn1nc(-c2cc(C(F)(F)F)c(F)c(O)c2F)c2cnc(N3CCN(C(=O)Nc4ccccc4)CC3)cc21 [Compound 21.01, 4-(3-(2,4-Difluoro-3-hydroxy-5-(trifluoromethyl)phenyl)-1-methyl-1H-pyrazolo[4,3-c]pyridin-6-y1)-N-phenylpiperazine-1-carboxamide] |
| < 100 | C[C@H]1CN(C(=O)Nc2ccccc2)CCN1c1cc2c(cn1)c(-c1cc(C(F)(F)F)c(F)c(O)c1F)nn2C [Compound 21.02, (S)-4-(3-(2,4-Difluoro-3-hydroxy-5-(trifluoromethyl)phenyl)-1-methyl-1H-pyrazolo[4,3-c]pyridin-6-y1)-3-methyl-N-phenylpiperazine-1-carboxamide] |
| < 100 | Cn1nc(-c2cc(C(F)(F)F)c(F)c(O)c2F)c2cnc(N3CCN(C(=O)Nc4ccccc4)CC3(C)C)cc21 [Compound 21.03, 4-(3-(2,4-Difluoro-3-hydroxy-5-(trifluoromethyl)phenyl)-1-methyl-1H-pyrazolo[4,3-c]pyridin-6-y1)-3,3-dimethyl-N-phenylpiperazine-1-carboxamide] |
| < 100 | Cn1nc(-c2cc(C(F)(F)F)c(F)c(O)c2F)c2cnc(N3CCN(C(=O)Nc4ccccc4)CC34CC4)cc21 [Compound 21.04, 4-(3-(2,4-Difluoro-3-hydroxy-5-(trifluoromethyl)phenyl)-1-methyl-1H-pyrazolo[4,3-c]pyridin-6-y1)-N-phenyl-4,7-diazaspiro[2.5]octane-7-carboxamide] |
| < 100 | Cn1nc(-c2cc(C(F)(F)F)c(F)c(O)c2F)c2cnc(N3CCN(C(=O)Nc4ccccc4)CC34CCC4)cc21 [Compound 21.05, 5-(3-(2,4-Difluoro-3-hydroxy-5-(trifluoromethyl)phenyl)-1-methyl-1H-pyrazolo[4,3-c]pyridin-6-y1)-N-phenyl-5,8-diazaspiro[3.5]nonane-8-carboxamide] |
| < 100 | C[C@H]1CN(c2cc3c(cn2)c(-c2cc(C(F)(F)F)c(F)c(O)c2F)nn3C)CCN1C(=O)Nc1ccccc1 [Compound 21.06, (S)-4-(3-(2,4-Difluoro-3-hydroxy-5-(trifluoromethyl)phenyl)-1-methyl-1H-pyrazolo[4,3-c]pyridin-6-y1)-2-methyl-N-phenylpiperazine-1-carboxamide] |
| < 100 | C[C@@H]1CN(c2cc3c(cn2)c(-c2cc(C(F)(F)F)c(F)c(O)c2F)nn3C)CCN1C(=O)Nc1ccccc1 [Compound 21.07, (R)-4-(3-(2,4-Difluoro-3-hydroxy-5-(trifluoromethyl)phenyl)-1-methyl-1H-pyrazolo[4,3-c]pyridin-6-y1)-2-methyl-N-phenylpiperazine-1-carboxamide] |
| < 100 | Cn1nc(-c2cc(C(F)(F)F)c(F)c(O)c2F)c2cnc(N3CCN(C(=O)Nc4ccccc4)C4(CC4)C3)cc21 [Compound 21.08, 7-(3-(2,4-Difluoro-3-hydroxy-5-(trifluoromethyl)phenyl)-1-methyl-1H-pyrazolo[4,3-c]pyridin-6-y1)-N-phenyl-4,7-diazaspiro[2.5]octane-4-carboxamide] |
| 100 to 1000 | CN(c1cc2c(cn1)c(-c1nc(C(F)(F)F)c(F)c(O)c1F)nn2C)C1CCOCC1 [Compound 22, 3,5-Difluoro-2-(1-methyl-6-(methyl(tetrahydro-2H-pyran-4-yl)amino)-1H-pyrazolo[4,3-c]pyridin-3-yl)-6-(trifluoromethyl)pyridin-4-ol] |

Same assay, conditions: at 30 uM compound; read-out: HSD17β13 % inhibition at 30 uM

| inhibition at 30 µM [%] | SMILES |
| --- | --- |
| 20 | O=C(NC1CCC1)c1ccc2oc(-c3cc(O)cc(C(F)(F)F)c3F)nc2c1 [Compound 23, N-Cyclobuty1-2-(2-fluoro-5-hydroxy-3-(trifluoromethyl)phenyl)benzo[d] oxazole-5-carboxamide] |
| < 20 | O=C(NC12CC(C1)C2)c1ccc2oc(-c3c(F)cc(F)c(O)c3F)nc2c1 [Compound 23.01, N-(Bicyclo[1.1.1]pentan-1-y1)-2-(2,4,6-trifluoro-3-hydroxyphenyl)benzo[d]oxazole-5-carboxamide] |
